This test relates to collagen. Put plainly: Shrinkage temperature testing of pericardial tissue fixed (cross-linked) in EGCG/PBS. As to conditions: for Shrinkage Temperature: pH 7.42, 37° C., fresh tissue control 62.6 +/− 0.6. As for the experimental part:
A 7 cm×7 cm piece of pericardial tissue was fixed in 40 ml of 0.5% EGCG/phosphate buffered saline (PBS), pH 7.42 in a 100 mm petri dish at 37° C., 82 rpm shaking speed, for 15 min. After 15 minutes, the tissue was quickly rinsed with PBS. Three samples were cut out for immediate shrinkage temperature testing (Group A). Shrinkage temperature can be an indication of the stability of the tissue. Increased shrinkage temperature is associated with an increased resistance to degradation. An additional 7 cm×7 cm piece of pericardial tissue was fixed in 40 ml of 0.5% EGCG/PBS, pH 7.42 in a 100 mm petri dish at 37° C. for 48 hours and quickly rinsed in PBS for 15 minutes. Six samples were cut out for shrinkage temperature testing (Group B). Six samples of fresh pericardial tissue were also cut for shrinkage temperature testing (Group C—Control Group).

Results on 2 compounds are retold here after patent publication US20090155337A1, “METHOD AND AGENT FOR IN-SITU STABILIZATION OF VASCULAR TISSUE” (ENDOLOGIX, INC., priority 2007, published 2009).

Turning to `O=C(O[C@@H]1Cc2c(O)cc(O)cc2O[C@@H]1c1cc(O)c(O)c(O)c1)c1cc(O)c(O)c(O)c1` [EGCG, epigallocatechin gallate], the “Shrinkage Temperature” value reads like this: (Group A: pericardial tissue cross-linked for 15 min in 0.5% EGCG/PBS) 72.2 +/− 0.5 °C; (Group B: pericardial tissue cross-linked for 48 hours in 0.5% EGCG/PBS) 86.3 +/− 0.6 °C.

Turning to Catechin, under “within 15 minutes of application under physiological conditions”, the “Stability of collagen via cross-linking” value is reported as “increases the stability of collagen”.
